Earlier results as cited in US20070009535A1 (priority 2005, published 2007).

Conditions: several oncolytics tested in preclinical models

Question: For `O[C@@H](COc1cccc2ncccc12)CN1CCN([C@@H]2c3ccccc3[C@@H]3[C@H](c4ccccc42)C3(F)F)CC1` [zosuquidar], which “pharmacokinetic interactions with oncolytics” value is on record?
Answer: The value was “minimal pharmacokinetic (PK) interactions”.
